Values of other authors, collected in US20050026813A1, “Antibiotic-metal complexes in the detection of gram-positive bacteria and other biological analytes” (priority 2003, published 2005).

Legend:
[1] = test system: anaerobes and gram-positive aerobes
[2] = test system: Bacillus subtilis ATCC 6633
[3] = test system: Micrococcus luteus
[4] = test system: Staph. aureus V573 MR
[5] = test system: Streptococcus pyogenes CN10
[6] = test system: Staphylococcus aureus SR14
[7] = test system: S. aureus SR2030; conditions: S. aureus SR2030 in mice, s.c.
[8] = test system: gram-positive bacteria; conditions: in words
[9] = test system: Staphylococcus aureus; conditions: systemic infections in mice
[10] = test system: Streptococcus pyogenes; conditions: systemic infections in mice
[11] = test system: Strep pneumoniae; conditions: systemic infections in mice
[12] = systemic infections in mice, Enterobacter faecalis
[13] = test system: laboratory strains of aerobic and anaerobic gram-positive bacteria
[14] = test system: subcutaneous and urinary tract infections
[15] = test system: multi-drug resistant strains of Haemophilus influenzae and Moraxella catarrhalis
[16] = test system: Staphylococcus aureus Oxford
[17] = test system: Strep. faecalis I
[18] = test system: S. aureus Sank 70175
[19] = test system: Mycobacterium smegmatis ATCC 607
[20] = test system: Enterococcus faecalis subsp. Liquifaciens S-299
[21] = test system: Staphylococcus aureus 56; conditions: mice infected with Staphylococcus aureus 56
[22] = test system: Staphylococcus aureus SG511
[23] = test system: S. aureus 285
[24] = test system: S. aureus 503
[25] = test system: Streptococcus pyogenes 77A
[26] = test system: Bacillus subtilis

COC(C)C(NC(=O)C1CCCN1C)C1OC(SC)C(O)C(O)C1O (stereo not shown) [BU-2545, 7-O-methyl-4′-de-n-propyllincomycin]
antibacterial activity [1]: exhibits antibacterial activity

CCCCCCCCCC(=O)NC1C(O[C@@H]2c3cc(Cl)c(c(Cl)c3)Oc3cc4cc(c3OC3OC(CO)C(O)C(O)C3O)Oc3ccc(cc3Cl)[C@@H](O)[C@H]3NC(=O)[C@H](NC)c5ccc(O)c(c5)Oc5cc(O)c(Cl)c(c5)C(NC3=O)C(=O)NC4C(=O)N[C@H]3C(=O)N[C@@H]2C(O)N[C@H](C(=O)O)c2cc(O)cc(O)c2-c2cc3cc(Cl)c2OC2OC(CO)C(O)C(O)C2O)OC(C(=O)O)C(O)C1O (stereo partly shown) [MM 55268]
MIC [2]: 2 microgram/ml | MIC [3]: 2 microgram/ml | MIC [4]: 1 microgram/ml | MIC [5]: 0.25 microgram/ml

CNC(CC(C)C)C(=O)NC1C(=O)NC(CC(N)=O)C(=O)NCC2C(=O)NC3CC/C=C\C=C(\O)CCc4c(O)cc(O)cc4C(C(=O)O)NCC(=O)C(CC(OC4CC(C)(N)C(O)C(C)O4)CC/C=C\COC4=C(OC5OC(CO)C(O)C(O)C5OC5CC(C)(N)C(O)C(C)O5)C(=CC2C=C4)OC/C=C\CCC1O)NCC3=O (stereo not shown) [PA-42867]
MIC [6]: 0.78 microgram/ml | ED50 [7]: 2.31 mg/kg | activity against gram-positive bacteria [8]: potent activity

CN[C@H](CC(C)C)C(=O)N[C@H]1C(=O)N[C@@H](CC(N)=O)C(=O)N[C@H]2C(=O)NC3C(=O)N[C@@H](C[C@H](OC4C[C@@H](C)C(O)C(C)O4)c4ccc(c(Cl)c4)Oc4cc2cc(c4OC2OC(CO)C(O)C(O)C2O)OC2CC=C(C=C2Cl)C1O)C(=O)N[C@H](C(=O)O)c1cc(O)cc(O)c1-c1cc3ccc1O (stereo partly shown) [S-3662]
ED50 [9]: 2.63 mg/kg | ED50 [10]: 0.49 mg/kg | ED50 [11]: 0.39 mg/kg | ED50 [12]: 0.95 mg/kg | activity compared with vancomycin [13]: superior to vancomycin | therapeutic efficacy [14]: showed therapeutic efficacy

C[C@@H]1CN(c2c(F)c(N)c3c(=O)c(C(=O)O)cn(C4CC4)c3c2F)C[C@H](C)N1 [sparfloxacin]
in vitro activity [15]: highly active

CN[C@H](CC(C)C)C(=O)N[C@H]1C(=O)N[C@@H](CC(N)=O)C(=O)N[C@H]2C(=O)N[C@H]3C(=O)N[C@H](C(=O)N[C@H](C(=O)O)c4cc(O)cc(O)c4-c4cc3ccc4O)[C@H](O)c3ccc(c(Cl)c3)Oc3cc2cc(c3O[C@@H]2O[C@H](CO)[C@@H](O)[C@H](O)[C@H]2O[C@H]2C[C@](C)(N)[C@H](O)[C@H](C)O2)Oc2ccc(cc2Cl)[C@H]1O [vancomycin]
MIC [2]: 0.25 microgram/ml | MIC [3]: 2 microgram/ml | MIC [16]: 2 microgram/ml | MIC [4]: 2 microgram/ml | MIC [5]: 1 microgram/ml | MIC [17]: 2 microgram/ml

avoparcin alpha, 49-chloro-4B,50-di-O-alpha-D-mannopyranosyl- [Galacardin A]
MIC [18]: 6.25 microgram/ml | MIC [19]: 25.0 microgram/ml | MIC [20]: 6.25 microgram/ml | in vivo efficacy (ED50) [21]: 19.0 mg/kg

des-methyl-balhimycin
MIC [22]: 0.1 microgram/ml | MIC [23]: 0.1 microgram/ml | MIC [24]: 0.05 microgram/ml | MIC [25]: 0.05 microgram/ml

vancomycin,22-O-(3-amino-2,3,6-trideoxy-3-C-methyl-alpha-D-arabino-hexopyranosyl)-2′-O-de(3-amino-2,3,6-trideoxy-3-C-methyl-alpha-L-lyxoyranosyl)-10,19-didechloro-2′-O-(6-deoxy-alpha-D-talopyranosyl)- [MM-49721]
MIC [26]: 2 microgram/ml | activity against gram-positive bacteria [8]: good activity
